This passage reports Kd results from publication PMC6035239, “Glycan recognition in globally dominant human rotaviruses” (Nature Communications, 2018).

The experiment addresses T1, P[6] RV3 VP8* (Human rotavirus A, UniProt D7F7M7).
T1 construct: VP8* domain, N-terminal fragment of spike protein VP4 (polyprotein-like precursor cleaved by trypsin); N-terminal GST tag removed with thrombin; E. coli BL21(DE3)
The experiment can be described thus: 2D 1H-15N HSQC NMR titration, global fit of […] peaks. It is filed as binding. The settings on record: 70 μM 15N-labeled protein, 0.5-20 mM ligand; 10 mM sodium phosphate, 50 mM NaCl, 10% D2O, pH 7; crystal structure and STD NMR also done.

In turn, `CC(=O)N[C@H]1[C@H](O[C@H]2[C@@H](O)[C@@H](CO)O[C@@H](O[C@H]3[C@H](O)[C@@H](O)C(O)O[C@@H]3CO)[C@@H]2O)O[C@H](CO)[C@@H](O)[C@@H]1O[C@@H]1O[C@H](CO)[C@H](O)[C@H](O)[C@H]1O[C@@H]1O[C@@H](C)[C@@H](O)[C@@H](O)[C@@H]1O` (stereo partly shown) [LNFP1] came in with a Kd of 7.1 ± 0.2 mM.
